Source: paper PMC4303209, “A novel phosphatidylinositol 3-kinase (PI3K) inhibitor directs a potent FOXO-dependent, p53-independent cell cycle arrest phenotype characterized by the differential induction of a subset of FOXO-regulated genes” (Breast Cancer Research : BCR, 2014)

Tested on: MCF-7 breast cancer cells
Assay: Microarray gene expression analysis (Agilent whole human genome 4 x 44K; compound vs DMSO, LIMMA log2 fold change)
Type: cell-based
Conditions: Apoptosis genes

## Oc1cccc(-c2nc(N3CCOCC3)c3oc4ncccc4c3n2)c1 [PI-103]
Gene 1495
  CTNNA1 log2FC: 0.421
Gene 1499
  CTNNB1 log2FC: 0.098
Gene 1508
  CTSB log2FC: 0.047
Gene 1512
  CTSH log2FC: -0.000676
Gene 1514
  CTSL log2FC: 0.329
Gene 1524
  CX3CR1 log2FC: 0.187
Gene 1540
  CYLD log2FC: 0.377
Gene 1601
  DAB2 log2FC: -0.118
Gene 1603
  DAD1 log2FC: -0.506
Gene 1611
  DAP log2FC: -0.163
Gene 1612
  DAPK1 log2FC: 0.477
Gene 1613
  DAPK3 log2FC: -0.075
Gene 1621
  DBH log2FC: -0.084
Gene 1630
  DCC log2FC: -0.032
Gene 1647
  GADD45A log2FC: -0.795
Gene 1649
  DDIT3 log2FC: 2.078
Gene 1654
  DDX3X log2FC: -1.134
Gene 1655
  DDX5 log2FC: -1.225
Gene 1676
  DFFA log2FC: -0.256
Gene 1687
  DFNA5 log2FC: -0.030
Gene 1718
  DHCR24 log2FC: -0.730
Gene 1723
  DHODH log2FC: -0.198
Gene 1728
  NQO1 log2FC: -0.052
Gene 1745
  DLX1 log2FC: -0.636
Gene 1773
  DNASE1 log2FC: 0.269
Gene 1776
  DNASE1L3 log2FC: -0.152
Gene 1777
  DNASE2 log2FC: 0.667
Gene 1793
  DOCK1 log2FC: 0.305
Gene 1800
  DPEP1 log2FC: 0.033
Gene 1822
  ATN1 log2FC: -0.173
Gene 1828
  DSG1 log2FC: -0.439
Gene 1829
  DSG2 log2FC: 0.213
Gene 1830
  DSG3 log2FC: -0.053
Gene 1831
  TSC22D3 log2FC: 0.499
Gene 1832
  DSP log2FC: 0.622
Gene 1843
  DUSP1 log2FC: -0.801
Gene 1844
  DUSP2 log2FC: -2.156
Gene 1848
  DUSP6 log2FC: -1.955
Gene 1869
  E2F1 log2FC: -0.119
Gene 1870
  E2F2 log2FC: -0.377
Gene 1894
  ECT2 log2FC: 0.836
Gene 1906
  EDN1 log2FC: 0.126
Gene 1909
  EDNRA log2FC: 0.064
Gene 1910
  EDNRB log2FC: -0.042
Gene 1917
  EEF1A2 log2FC: 0.203
Gene 1946
  EFNA5 log2FC: -0.125
Gene 1956
  EGFR log2FC: 0.479
Gene 1958
  EGR1 log2FC: -2.608
Gene 1959
  EGR2 log2FC: -0.367
Gene 1969
  EPHA2 log2FC: -1.806
Gene 1984
  EIF5A log2FC: -0.261
Gene 2021
  ENDOG log2FC: -0.245
Gene 2033
  EP300 log2FC: -0.124
Gene 2045
  EPHA7 log2FC: -0.025
Gene 2055
  CLN8 log2FC: -0.236
Gene 2056
  EPO log2FC: -0.136
Gene 2065
  ERBB3 log2FC: 0.809
Gene 2066
  ERBB4 log2FC: 0.106
Gene 2068
  ERCC2 log2FC: -0.269
Gene 2071
  ERCC3 log2FC: -0.108
Gene 2073
  ERCC5 log2FC: 0.823
Gene 2074
  ERCC6 log2FC: 0.488
Gene 2081
  ERN1 log2FC: -0.108
Gene 2099
  ESR1 log2FC: -0.048
Gene 2100
  ESR2 log2FC: -0.062
Gene 2113
  ETS1 log2FC: -0.820
Gene 2139
  EYA2 log2FC: -0.257
Gene 2149
  F2R log2FC: 0.377
Gene 2152
  F3 log2FC: -0.177
Gene 2185
  PTK2B log2FC: 0.175
Gene 2207
  FCER1G log2FC: -0.541
Gene 2245
  FGD1 log2FC: -0.255
Gene 2249
  FGF4 log2FC: 0.019
Gene 2253
  FGF8 log2FC: -0.135
Gene 2255
  FGF10 log2FC: -0.00185
Gene 2260
  FGFR1 log2FC: -0.374
Gene 2261
  FGFR3 log2FC: -0.164
Gene 2263
  FGFR2 log2FC: 1.806
Gene 2272
  FHIT log2FC: -0.336
Gene 2274
  FHL2 log2FC: -0.078
Gene 2296
  FOXC1 log2FC: -0.767
Gene 2303
  FOXC2 log2FC: -0.284
Gene 2322
  FLT3 log2FC: 0.120
Gene 2324
  FLT4 log2FC: -0.157
Gene 2339
  FNTA log2FC: 0.629
Gene 2395
  FXN log2FC: -0.514
Gene 2487
  FRZB log2FC: 0.040
Gene 2534
  FYN log2FC: 0.082
Gene 2539
  G6PD log2FC: -0.156
Gene 2558
  GABRA5 log2FC: -0.0016
Gene 2561
  GABRB2 log2FC: -0.080
Gene 2562
  GABRB3 log2FC: -0.025
Gene 2619
  GAS1 log2FC: 0.756
Gene 2620
  GAS2 log2FC: 0.149
Gene 2623
  GATA1 log2FC: -0.018
Gene 2625
  GATA3 log2FC: -0.114
Gene 2668
  GDNF log2FC: -0.175
Gene 2683
  B4GALT1 log2FC: 0.192
Gene 2697
  GJA1 log2FC: -0.613
Gene 2729
  GCLC log2FC: 0.812
Gene 2737
  GLI3 log2FC: 0.540
Gene 2739
  GLO1 log2FC: -0.070
Gene 2765
  GML log2FC: -0.071
Gene 2782
  GNB1 log2FC: -0.085
Gene 2792
  GNGT1 log2FC: -0.037
Gene 2796
  GNRH1 log2FC: 0.097
Gene 2810
  SFN log2FC: -1.150
Gene 2822
  GPLD1 log2FC: -0.157
Gene 2833
  CXCR3 log2FC: -0.474
Gene 2869
  GRK5 log2FC: -0.059
Gene 2872
  MKNK2 log2FC: -0.826
Gene 2876
  GPX1 log2FC: 0.431
Gene 2895
  GRID2 log2FC: -0.052
Gene 2898
  GRIK2 log2FC: 0.091
Gene 2901
  GRIK5 log2FC: -0.101
Gene 2902
  GRIN1 log2FC: -0.444
Gene 2903
  GRIN2A log2FC: -0.041
Gene 2908
  NR3C1 log2FC: 1.042
Gene 2914
  GRM4 log2FC: -0.029
Gene 2923
  PDIA3 log2FC: -0.085
Gene 2931
  GSK3A log2FC: -0.030
Gene 2932
  GSK3B log2FC: -0.455
Gene 2934
  GSN log2FC: 0.174
Gene 2950
  GSTP1 log2FC: 0.117
Gene 2956
  MSH6 log2FC: -0.075
Gene 2999
  GZMH log2FC: -0.148
Gene 3001
  GZMA log2FC: -0.034
Gene 3002
  GZMB log2FC: -0.002
Gene 3004
  GZMM log2FC: -0.381
Gene 3005
  H1F0 log2FC: 0.834
Gene 3055
  HCK log2FC: -0.033
Gene 3065
  HDAC1 log2FC: -0.547
Gene 3066
  HDAC2 log2FC: 0.060
Gene 3070
  HELLS log2FC: 0.140
Gene 3071
  NCKAP1L log2FC: 0.054
Gene 3082
  HGF log2FC: -0.198
Gene 3084
  NRG1 log2FC: -1.164
Gene 3090
  HIC1 log2FC: -0.122
Gene 3091
  HIF1A log2FC: 0.019
Gene 3092
  HIP1 log2FC: -0.167
Gene 3094
  HINT1 log2FC: 0.210
Gene 3099
  HK2 log2FC: -1.428
Gene 3146
  HMGB1 log2FC: 0.343
Gene 3148
  HMGB2 log2FC: 1.070
Gene 3156
  HMGCR log2FC: 0.051
Gene 3162
  HMOX1 log2FC: 1.050
Gene 3164
  NR4A1 log2FC: -0.484
Gene 3202
  HOXA5 log2FC: 0.436
Gene 3209
  HOXA13 log2FC: 0.042
Gene 3265
  HRAS log2FC: -0.758
Gene 3273
  HRG log2FC: -0.015
Gene 3275
  PRMT2 log2FC: 0.289
Gene 3303
  HSPA1A log2FC: -2.361
Gene 3309
  HSPA5 log2FC: -0.793
Gene 3315
  HSPB1 log2FC: -0.135
Gene 3320
  HSP90AA1 log2FC: 0.717
Gene 3326
  HSP90AB1 log2FC: -0.430
